SMILES strings stand for the structures.

These results are taken from ChEMBL document CHEMBL4665663, “Anti-atherosclerosis effect of HS donors based on nicotinic acid and chlorfibrate structures” (Bioorg Med Chem, 2019).

The nature of data set [1]: Prodrug release in phosphate buffer containing L-cysteine assessed as H2S release by measuring H2S releasing half-life at 60 uM by methylene blue method. It counts as ADME.
For a further data set, the system named is HUVEC. In words: Cytotoxicity against human HUVEC cells assessed as reduction in cell viability after 48 hrs by MTT assay. It counts as cell-based. A general note: Formazan colour is commonly taken as a measure of viable cells.
Another data set has as its system WI-38. As to the kind of experiment: Cytotoxicity against human WI38 cells assessed as reduction in cell viability after 48 hrs by MTT assay. The format is cell-based. The following applies: WI-38, 48 h.
For the next data set, the system named is RAW264.7. In words: Cytotoxicity against mouse RAW264.7 cells assessed as reduction in cell viability after 48 hrs by MTT assay. It counts as cell-based. The following applies: RAW264.7, 48 h.
The subject of a further data set is H9c2. As to the kind of experiment: Cytotoxicity against rat H9c2 cells assessed as reduction in cell viability after 48 hrs by MTT assay. The format is cell-based. The settings on record: H9c2, 48 h.

As to `COc1ccc(NC(=S)OCCNC(=O)C(C)(C)Oc2ccc(Cl)cc2)cc1`, in data set [1], the t1/2 worked out at 0.9 min. The IC50 (commonly the point on the concentration scale where inhibition reaches its midpoint) in the data set with HUVEC is 616 µM; in the data set on WI-38, 780 µM; in the data set with RAW264.7 it was > 800 µM; in the data set with H9c2, 747 µM.

On to `O=C(Oc1ccc(-c2cc(=S)ss2)cc1)c1cccnc1`, for which the t1/2 in data set [1] came to 3.3 min. Also, the IC50 in the data set with HUVEC was 562 µM; in the data set on WI-38, 734 µM; in the data set with RAW264.7, > 800 µM; in the data set on H9c2, 627 µM.

For the compound `Cc1ccc(NC(=S)OCCNC(=O)C(C)(C)Oc2ccc(Cl)cc2)cc1`, the t1/2 in data set [1] was found to be 1 min. In addition, the IC50 is 661 µM in the data set on HUVEC, > 800 µM with WI-38, > 800 µM in the data set on RAW264.7 and 771 µM in the data set on H9c2.

On to `NC(=S)c1ccc(OC(=O)c2cccnc2)cc1`, for which, in data set [1], the t1/2 was found to be 2.1 min. The IC50 is 683 µM in the data set with HUVEC, > 800 µM in the data set with WI-38, > 800 µM with RAW264.7 and 754 µM in the data set with H9c2.

As to `Cc1ccc(NC(=S)OCCNC(=O)c2cccnc2)cc1`, the t1/2 in data set [1] is recorded as 0.9 min. The IC50 with HUVEC was 567 µM; in the data set on WI-38, > 800 µM; in the data set on RAW264.7, > 800 µM; with H9c2, 726 µM.

With `CC(C)(Oc1ccc(Cl)cc1)C(=O)Oc1ccc(C(N)=S)cc1`, the t1/2 in data set [1] is recorded as 5.6 min. The IC50 was 755 µM with HUVEC, > 800 µM with WI-38, > 800 µM with RAW264.7 and 797 µM in the data set on H9c2.

On to `O=C(NCCOC(=S)Nc1ccccc1)c1cccnc1`, for which the t1/2 in data set [1] was determined as 1.2 min. In addition, the IC50 was 724 µM in the data set on HUVEC, > 800 µM with WI-38, > 800 µM in the data set with RAW264.7 and > 800 µM in the data set on H9c2.

With `Cc1cnc(C(=O)Oc2ccc(C(N)=S)cc2)c[n+]1[O-]`, the t1/2 in data set [1] is 3.9 min. Moreover, the IC50 was 714 µM in the data set on HUVEC, > 800 µM in the data set with WI-38, > 800 µM in the data set with RAW264.7 and 780 µM in the data set with H9c2.

Turning to `CC(C)(Oc1ccc(Cl)cc1)C(=O)Oc1ccc(-c2cc(=S)ss2)cc1`, in data set [1], the t1/2 came to 4.2 min. In addition, the IC50 with HUVEC is 616 µM; in the data set on WI-38, 764 µM; in the data set on RAW264.7, > 800 µM; with H9c2, 675 µM.

Take `Cc1cnc(C(=O)OCCCOC(=O)CCCCC2CCSS2)c[n+]1[O-]` (stereo not given): in data set [1], the t1/2 came to 19.8 min. Besides, the IC50 with HUVEC, in the data set with WI-38, in the data set on RAW264.7 and with H9c2 was > 800 µM throughout.

With `COc1ccc(NC(=S)OCCNC(=O)c2cccnc2)cc1`, in data set [1], the t1/2 is 0.8 min. Also, the IC50 is 550 µM in the data set with HUVEC, 781 µM in the data set with WI-38, > 800 µM with RAW264.7 and 694 µM with H9c2.

Turning to `O=C(NCCOC(=S)Nc1ccc(F)cc1)c1cccnc1`, the t1/2 in data set [1] is 1.5 min. Moreover, the IC50 in the data set with HUVEC was 692 µM; in the data set with WI-38, > 800 µM; in the data set with RAW264.7, > 800 µM; with H9c2, > 800 µM.

As for `CC(C)(Oc1ccc(Cl)cc1)C(=O)NCCOC(=S)Nc1ccccc1`, the t1/2 in data set [1] stood at 1.4 min. The half-maximal inhibitory concentration (IC50) with HUVEC is 791 µM; in the data set with WI-38 it was > 800 µM; in the data set on RAW264.7, > 800 µM; in the data set with H9c2, > 800 µM.

With `CC(C)(Oc1ccc(Cl)cc1)C(=O)NCCOC(=S)Nc1ccc(F)cc1`, in data set [1], the t1/2 worked out at 1.2 min. Further, the IC50 was 773 µM in the data set on HUVEC, > 800 µM in the data set on WI-38, > 800 µM in the data set on RAW264.7 and > 800 µM in the data set with H9c2.
